# Assay results: publication PMC5301048, “Selection and early clinical evaluation of the brain‐penetrant 11β‐hydroxysteroid dehydrogenase type 1 (11β‐HSD1) inhibitor UE2343 (Xanamem™)” (British Journal of Pharmacology, 2017)
# Tests used:
# [1] = Microsomal stability, dog liver microsomes; assay type: in vitro ADME; conditions: mean ± SD [n]
# Protocol: Microsomal stability was determined using pooled human, rat or dog liver microsomes according to the method described in WO2011135276 (Webster et al., 2011a).
# 11β‐HSD1 in the liver = test: Single ascending dose study, urinary THFs/THE ratio; assay type: in vivo; conditions: human
# Protocol: A double‐blind, randomized, placebo‐controlled single ascending dose study was carried out at Simbec Research Ltd, Merthyr Tydfil, UK. Each cohort consisted of six healthy male subjects and two females of non‐child bearing potential. Two male ‘dose leader’ subjects (1 active : 1 placebo) were dosed first in each cohort. The remainder of the cohort (5 active : 1 placebo) were dosed 24 h later. Dose cohorts were 2, 5, 10, 18, 25 and 35 mg. Safety, pharmacokinetic and pharmacodynamic assessments were made at pre‐determined time‐points during each part of the study. Dose escalation was dependent upon satisfactory review of the blinded safety (up to Day 6) and pharmacokinetic (up to 24 h post‐dose) data from the preceding cohort.
# Laboratory evaluation of clinical safety parameters was carried out using standard validated methods. Measurement of plasma pharmacodynamic markers [adrenocorticotropic hormone (ACTH), cortisol, 4‐androstenedione, testosterone and dehydroepiandrosterone sulphate (DHEA‐s)] was carried out using commercially available kits. Each method was fully validated prior to analysis. Urinary steroid metabolites were measured according to established methods (Boonen et al., 2013). UE2343 levels in plasma, urine and CSF was determined by LC–MS/MS using fully validated methods.
# The data and statistical analysis comply with the recommendations on experimental design and analysis in pharmacology (Curtis et al., 2015). Levels of probability, P < 0.05 were deemed to constitute the threshold for statistical significance. Pharmacokinetic parameters, except Tmax (time of maximum observed drug concentration), are given as mean ± coefficient of variation (CV%). Tmax is given as median ± range. For each of the pharmacodynamic parameters [ACTH, cortisol, adrenal androgens, tetrahydrocortisols (THFs)/tetrahydrocortisone (THE) ratio], the maximum % change from baseline for each subject was subjected to ANOVA. For selected data, an additional covariate factor for the baseline was also included in the ANOVA/analysis of covariance (ANCOVA) model. Associated P‐values <0.05 for each comparison have been presented.
# 11β‐HSD1 is predominantly located in the liver and adipose tissue. Cortisol (F) and cortisone (E) are cleared from the liver via the enzymes 5α‐reductase and 3α‐HSD to generate tetrahydro (TH) metabolites that are eliminated in the urine. Measurement of urinary TH metabolite ratios thus provides a surrogate measure of 11β‐HSD1 inhibition in the liver (Best and Walker, 1997). Following a single dose of UE2343, there was a statistically significant reduction in the urinary THFs/THE ratio between 0 and 4 h at doses of 18, 25 and 35 mg, equating to a reduction of 58, 55 and 50% respectively (Figure 4A).
# CYP1A2 = biological target: T1, CYP1A2 (Homo sapiens, UniProt P05177); test: Cytochrome P450 inhibition, CYP1A2; assay type: in vitro ADME; conditions: human liver microsomes; read-out: CYP450 isoform 1A2 IC50
# T1 construct: tissue Cyprotex Discovery Limited; host or cells: human liver microsomes
# T1 sequence (P05177 1-516): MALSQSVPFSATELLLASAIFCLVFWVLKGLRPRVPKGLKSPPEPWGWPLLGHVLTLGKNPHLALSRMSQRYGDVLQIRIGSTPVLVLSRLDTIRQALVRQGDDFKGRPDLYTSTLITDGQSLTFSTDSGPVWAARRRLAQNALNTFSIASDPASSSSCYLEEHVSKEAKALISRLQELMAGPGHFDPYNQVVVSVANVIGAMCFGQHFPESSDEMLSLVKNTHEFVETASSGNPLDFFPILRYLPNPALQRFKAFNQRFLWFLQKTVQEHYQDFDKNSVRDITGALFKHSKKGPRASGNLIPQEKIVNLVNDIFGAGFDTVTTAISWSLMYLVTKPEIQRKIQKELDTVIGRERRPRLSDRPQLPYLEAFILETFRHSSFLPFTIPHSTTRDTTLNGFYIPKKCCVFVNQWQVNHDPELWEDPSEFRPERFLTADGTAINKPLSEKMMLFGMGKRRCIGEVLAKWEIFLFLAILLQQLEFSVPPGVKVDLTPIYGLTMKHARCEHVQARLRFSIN
# Protocol: (§1) Testing was performed by Cyprotex Discovery Limited, Cheshire, UK. Six test compound concentrations (0.4, 1, 4, 10, 40 and 100 μM; final DMSO concentration 0.25%, final microsome concentration 0.25 mg·mL^−1) were either pre‐incubated for 30 min in the absence and presence of NADPH or underwent a 0 min pre‐incubation with human liver microsomes. At the end of the pre‐incubation period, the probe substrate for each cytochrome P450 (CYP450) isoform (30 μM) and NADPH (1 mM) were then added (final DMSO concentration 0.3%), and the samples were incubated for 5 min at 37°C. Probe substrates were as follows: 1A2 – phenacetin, 2C9 – diclofenac, 2C19 – mephenytoin, 2D6 – dextromethorphan, 3A4 – midazolam and testosterone. Samples were subjected to LC–MS/MS analysis to determine metabolite concentrations. A decrease in the formation of the metabolite compared with vehicle control was used to calculate an IC50 value (test compound concentration which produces 50% inhibition) for each experimental condition.
# CYP2C19 = biological target: T2, CYP2C19 (Homo sapiens, UniProt P33261); test: Cytochrome P450 inhibition, CYP2C19; assay type: in vitro ADME; conditions: human liver microsomes; read-out: CYP450 isoform 2C19 IC50
# T2 construct: tissue Cyprotex Discovery Limited; host or cells: human liver microsomes
# T2 sequence (P33261 whole entry, canonical isoform): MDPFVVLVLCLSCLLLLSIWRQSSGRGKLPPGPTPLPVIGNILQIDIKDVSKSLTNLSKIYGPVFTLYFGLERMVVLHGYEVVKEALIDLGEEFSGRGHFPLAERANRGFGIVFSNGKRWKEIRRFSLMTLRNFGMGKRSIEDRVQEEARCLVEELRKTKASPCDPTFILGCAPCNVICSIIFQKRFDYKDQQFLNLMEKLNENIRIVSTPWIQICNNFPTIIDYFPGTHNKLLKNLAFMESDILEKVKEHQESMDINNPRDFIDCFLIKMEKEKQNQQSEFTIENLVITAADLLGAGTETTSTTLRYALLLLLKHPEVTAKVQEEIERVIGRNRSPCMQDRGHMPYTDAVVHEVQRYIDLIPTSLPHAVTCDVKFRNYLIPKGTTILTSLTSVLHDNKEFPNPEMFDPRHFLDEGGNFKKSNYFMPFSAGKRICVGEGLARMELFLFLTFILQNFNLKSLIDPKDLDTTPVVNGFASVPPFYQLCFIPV
# Protocol: as §1
structure (smiles),measurement,setting,value
O=C(c1csc(-c2cn[nH]c2)c1)N1C2CCC1CC(O)(c1ncccn1)C2 (stereo not shown) [compound 4],"Liver microsomal stability (% parent at 30 min), dog",[1],92 ± 5 [3] % parent at 30 min
same,reduction in the urinary THFs/THE ratio,"11β‐HSD1 in the liver; single dose 10 mg, 4–8 h",79%
same,reduction in the urinary THFs/THE ratio,"11β‐HSD1 in the liver; single dose 18 mg, 0–4 h",58%
same,reduction in the urinary THFs/THE ratio,"11β‐HSD1 in the liver; single dose 18 mg, 4–8 h",86%
same,reduction in the urinary THFs/THE ratio,"11β‐HSD1 in the liver; single dose 25 mg, 0–4 h",55%
same,reduction in the urinary THFs/THE ratio,"11β‐HSD1 in the liver; single dose 25 mg, 4–8 h",83%
same,reduction in the urinary THFs/THE ratio,"11β‐HSD1 in the liver; single dose 35 mg, 0–4 h",50%
same,reduction in the urinary THFs/THE ratio,"11β‐HSD1 in the liver; single dose 35 mg, 4–8 h",83%
same,IC50,CYP1A2,> 50 µM
same,IC50,CYP2C19,1.7 µM
